These results are taken from US20260034135A1, “USE OF N6-BENZYLAMINOPURINE AS AN APPETITE SUPPRESSANT” (THE GOVERNING COUNCIL OF THE UNIVERSITY OF TORONTO, priority 2022, published 2026).

Holding throughout (type): cell-based, mouse
One experiment deals with mHypoE-44 cell line. The experiment in a line: Gene expression by qRT-PCR in mHypoE-44 hypothalamic cell line. The note with it: 16 hr. On the procedure:
(§1) Hypothalamic neurons from embryonic and adult mice were previously immortalized to generate the clonal cell lines mHypoE-46, mHypoE-44, mHypoE-41, mHypoE-38, mHypoA-59, a FAC-sorted POMC/GFP mouse-derived cell line, mHypoA-POMC/GFP-2, and a mixed culture mHypoA-Bmal1-WT/F cell line (6, 13, 14). The mHypoE-46, mHypoE-44, and mHypoA-Bmal1-WT/F lines were cultured in DMEM containing 1000 mg/L glucose supplemented with 5% FBS and 1% pen/strep. The mHypoE-41, mHypoE-38, and mHypoA-59 cell lines were cultured in DMEM containing 4500 mg/L glucose supplemented with 2% FBS and 1% pen/strep. The mHypoA-POMC/GFP-2 line was cultured in DMEM containing 1000 mg/L glucose supplemented with 2% FBS and 1% pen/strep. All cells were maintained in 5% CO2 at 37° C. BAP was initially dissolved in DMSO solvent (vehicle control) to achieve 1000x the intended dose. The BAP solution was then diluted 1:1000 with the growth media used for the cell line. For co-treatment experiments, the vehicle control for ATP, UDP, and PKI was water, and for the H89 PKA inhibitor was DMSO. Neuropeptide gene expression levels were determined by qRT-PCR.
(§2) For cell culture experiments, total RNA was isolated using PureLink RNA isolation kit (Thermofisher Scientific, Burlington, ON, Canada) according to the manufacturer's instruction with on column DNase step (PureLink DNAse kit) or DNase I treatment to remove genomic DNA. For mouse experiments, total RNA was isolated using mirVana PARIS RNA and native protein isolation kit (Thermofisher Scientific). RNA quality and quantity were measured using Nanodrop 2000 and 500-1000 ng of complimentary DNA (cDNA) was synthesized with High Capacity cDNA Reverse Transcription kit (Applied biosystems, Thermofisher Scientific). Quantitative reverse transcription polymerase chain reaction (RT-qPCR) was performed with 12.5 ng of cDNA amplified with Platinum SYBR green qPCR SuperMix-UDG with ROX on an Applied Biosystems Prism 7900HT or PowerTrack Green Master Mix on an Applied Biosystems QuantStudio 5 and gene specific primers as per manufacturer's instructions (Table 1). Data was analyzed using […] and normalized to reference gene, either 60S ribosomal protein L7 (Rpl7) or Histone 3a (His).

A further experiment concerns mHypoE-46 cell line. The experiment in a line: Gene expression by qRT-PCR in mHypoE-46 hypothalamic cell line. The conditions noted are these: for Npy expression: 16 hr. As to the method:
as §1, §2

The next experiment concerns AMPK. The experiment in a line: AMPK phosphorylation by Western blot in mHypoE-46. The note with it: 500 μM AICAR, 15 min, mHypoE-46, positive control. On the procedure:
mHypoE-46 cells were serum starved in 5.5 mM glucose (LG) DMEM for 1 hour prior to treatment with vehicle (0.1% DMSO), 100 µM BAP or H20, […] 5-Aminoimidazole-4-carboxamide ribonucleotide (AICAR) or 0 mM glucose DMEM. Protein was harvested using 1× cell lysis buffer (Cell Signaling Technologies, Inc, CST) containing protease and phosphatase inhibitors. A total of 30 μg protein was separated on a 12% SDS-polyacrylamide gels and transferred onto PVDF membranes. Membranes were blocked in 5% milk dissolved in Tris-buffered saline with Tween 20 (TBS-T) for 1 h and incubated with primary antibody overnight at 4° C. phospho-AMPKα (Thr172; cat. 2532S, CST), and total AMPKα (cat. 2535S, CST); phospho-p70-S6K (Thr389; cat. 9205S, CST) and total p70-S6K (cat. 9202S, CST); insulin receptor ß (cat. 3025S, CST); phospho-AKT (Ser473; cat. 9271S, CST) and total AKT (cat. 9272S, CST); phospho-ERK1/2 (Thr202/Tyr204; cat. 9101, CST) and total ERK (cat. 4695, CST) were diluted 1:1000 in 5% milk in TBS-T. Membranes were washed and incubated with secondary HRP-linked antirabbit antibody (1:7500 in 5% milk in TBS-T, CST) for 1 h, washed, and imaged using the Signal Fire ECL Reagent (CST) on the iBright 1500 Imaging System (Thermofisher). Protein density was quantified using ImageJ or the iBright Imaging System.

The next experiment has as its system mHypoE-41 cell line. The experiment in a line: Gene expression by qRT-PCR in mHypoE-41 hypothalamic cell line. The conditions noted are these: 100 μM ATP, 16 hr. As to the method: as §1, §2
Another experiment deals with mHypoA-59 cell line. The experiment in a line: Gene expression by qRT-PCR in mHypoA-59 hypothalamic cell line. The note with it: ATP (data not shown). As to the method: as §1, §2

On to `O=c1ccn([C@@H]2O[C@H](COP(=O)(O)OP(=O)(O)OP(=O)(O)O)[C@@H](O)[C@H]2O)c(=O)[nH]1` [UTP, reference compound], for which, in the experiment with mHypoE-44 cell line (100 μM UTP, n=2 preliminary), the “basal Npy expression” value is on record as “may decrease the basal expression of Npy”. Moreover, the Npy expression result in the experiment on mHypoE-46 cell line (100 μM UTP, n=2 preliminary) is given as “no effect”.

`c1coc(CNc2ncnc3[nH]cnc23)c1` [kinetin]: in the experiment with mHypoE-46 cell line (100 μM kinetin, 16 h, n=2 preliminary), the “repression of Npy transcripts” value is listed as approximately 50%.

Take `O=c1ccn([C@@H]2O[C@H](COP(=O)(O)OP(=O)(O)O)[C@@H](O)[C@H]2O)c(=O)[nH]1` [UDP, reference compound]: the results for the Npy expression result in the experiment on mHypoE-44 cell line (100 μM UDP) and in the experiment on mHypoE-46 cell line (100 μM UDP) were “unable to affect the expression of Npy” and “no effect”, respectively.

As for `NC(=O)c1ncn([C@@H]2O[C@H](COP(=O)(O)O)[C@@H](O)[C@H]2O)c1N` [AICAR, 5-Aminoimidazole-4-carboxamide ribonucleotide, reference compound], the “AMPK phosphorylation (activation) vs vehicle” value in the experiment on AMPK is reported as “significantly activate AMPK”.

For `Nc1ncnc2c1ncn2[C@@H]1O[C@H](COP(=O)(O)OP(=O)(O)OP(=O)(O)O)[C@@H](O)[C@H]1O` [ATP, reference compound], the Npy expression entry was “induces the expression of Npy” with mHypoE-44 cell line (100 μM ATP), “induces the expression of Npy” with mHypoE-41 cell line, “increased” in the experiment on mHypoA-59 cell line and “induces the expression of Npy” in the experiment with mHypoE-46 cell line (100 μM ATP). Further, the Agrp expression entry in the experiment with mHypoA-59 cell line is on record as “increased”.
